Results from ChEMBL document CHEMBL4033770, “Importance of a 4-Alkyl Substituent for Activity in the Englerin Series” (2017).

What was measured:
Format in all cases: functional
Hs-578T = assay: Growth inhibition of human Hs 578T cells incubated for 48 hrs by SRB assay
ACHN = assay: Growth inhibition of human ACHN cells incubated for 48 hrs by SRB assay
A498 = assay: Growth inhibition of human A498 cells incubated for 48 hrs by SRB assay; conditions: A498, 48 h
UO-31 = assay: Growth inhibition of human UO31 cells incubated for 48 hrs by SRB assay; conditions: UO-31, 48 h

Row | GI50 (ACHN) [nM] | SMILES | GI50 (Hs-578T) [nM] | GI50 (A498) [nM] | GI50 (UO-31) [nM]
1 | 8.3 | CC(C)[C@@H]1CC[C@@H]2[C@@H]1[C@H](OC(=O)/C=C/c1ccccc1)[C@@]1(C(C)C)C[C@@H](OC(=O)CO)[C@]2(C)O1 | 3.2 | 8.1 | 11
2 | 13 | CC[C@@H]1CC[C@@H]2[C@@H]1[C@H](OC(=O)/C=C/c1ccccc1)[C@@]1(C(C)C)C[C@@H](OC(=O)CO)[C@]2(C)O1 | 4.1 | 38 | 19
3 | 162 | CC(C)[C@]12C[C@@H](OC(=O)CO)[C@](C)(O1)[C@@H]1CCC[C@H]1[C@@H]2OC(=O)/C=C/c1ccccc1 | 31 | 123 | 182
